Assay results taken from patent US20230295157A1, “3-(1H-IMIDAZOL-2-YL)-2,3,8,8A-TETRAHYDROINDOLIZIN-5(1H)-ONE DERIVATIVES USEFUL AS FACTOR XIA INHIBITORS” (JANSSEN PHARMACEUTICA NV, priority 2020, published 2023).
pIC50: −log10 of the molar value. Like-named read-outs stand apart in the source and are kept apart here.

Experiments:
Factor XIa = Factor XIa (Homo sapiens (Human), UniProt P03951); test: Factor XIa inhibition assay (FLINT) utilizing a fluorophore-quencher pair peptide substrate; type: biochemical; settings: 30 min preincubation, kinetic reads over 30 min, read-out: FXIa Kin Inh IC50
Sequence of Factor XIa (P03951 388-625): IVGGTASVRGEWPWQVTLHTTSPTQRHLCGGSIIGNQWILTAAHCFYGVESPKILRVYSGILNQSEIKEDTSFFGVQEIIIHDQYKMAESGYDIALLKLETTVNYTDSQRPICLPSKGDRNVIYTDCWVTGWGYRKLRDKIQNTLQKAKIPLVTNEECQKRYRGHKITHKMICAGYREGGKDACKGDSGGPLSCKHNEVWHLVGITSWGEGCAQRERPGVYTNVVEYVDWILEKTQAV
Sequence of Factor XIa (P03951 19-387 partner): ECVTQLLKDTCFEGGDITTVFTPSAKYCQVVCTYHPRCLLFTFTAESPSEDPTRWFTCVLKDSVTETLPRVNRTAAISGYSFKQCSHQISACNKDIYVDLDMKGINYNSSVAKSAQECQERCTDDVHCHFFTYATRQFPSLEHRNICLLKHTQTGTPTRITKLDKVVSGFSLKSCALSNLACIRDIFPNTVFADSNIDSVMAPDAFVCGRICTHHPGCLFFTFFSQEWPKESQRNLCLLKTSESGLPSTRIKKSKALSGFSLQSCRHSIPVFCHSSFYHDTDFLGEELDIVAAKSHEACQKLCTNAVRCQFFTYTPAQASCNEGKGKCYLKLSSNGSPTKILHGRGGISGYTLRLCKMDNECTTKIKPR
How it was run: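 FXIa ([…]) preincubated 30 min with compound (11-point 3-fold dilution, top 100 nM, 2% DMSO), then 15 μM quenched FXI Arg146-based peptide added; Tris pH 7.5, CaCl2, BSA, CHAPS. Fluorescence 485/520 nm read kinetically every 5 min over 30 min at RT; IC50 by 4-parameter fit.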

human plasma kallikrein = human plasma kallikrein (Homo sapiens (Human), UniProt P03952); test: Kallikrein inhibition assay (FLINT) utilizing a quenched AMC peptide substrate; type: biochemical; settings: 30 min preincubation, read-out: Kallikrein Kin Inh IC50; for pIC50: kinetic reads over 30 min, Z-Gly-Pro-Arg-AMC substrate 50 μM; for IC50: μM, kinetic reads
Sequence of human plasma kallikrein (P03952 391-638): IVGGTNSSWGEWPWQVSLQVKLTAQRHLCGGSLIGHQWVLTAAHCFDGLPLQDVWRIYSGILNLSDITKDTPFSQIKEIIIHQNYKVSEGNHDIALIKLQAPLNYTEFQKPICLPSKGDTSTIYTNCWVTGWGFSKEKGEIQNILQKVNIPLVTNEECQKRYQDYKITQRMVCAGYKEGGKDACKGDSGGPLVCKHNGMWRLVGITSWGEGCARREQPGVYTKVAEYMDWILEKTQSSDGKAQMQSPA
Sequence of human plasma kallikrein (P03952 20-390 partner): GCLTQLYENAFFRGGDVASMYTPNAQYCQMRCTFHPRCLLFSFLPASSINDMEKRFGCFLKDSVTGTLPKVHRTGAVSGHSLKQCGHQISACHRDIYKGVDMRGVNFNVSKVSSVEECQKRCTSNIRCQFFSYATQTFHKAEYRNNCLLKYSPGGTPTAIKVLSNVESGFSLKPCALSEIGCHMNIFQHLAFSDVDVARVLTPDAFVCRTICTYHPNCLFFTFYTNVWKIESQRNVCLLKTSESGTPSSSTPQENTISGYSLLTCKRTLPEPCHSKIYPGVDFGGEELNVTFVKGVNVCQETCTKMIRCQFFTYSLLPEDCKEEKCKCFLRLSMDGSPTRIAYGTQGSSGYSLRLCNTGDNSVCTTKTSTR
How it was run: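 Fluorogenic Z-Gly-Pro-Arg-AMC cleavage (50 μM substrate, 2 nM kallikrein, Tris pH 7.5, CaCl2, BSA, CHAPS, 2% DMSO) read kinetically at 340/440 nm for 30 min after 30-min compound pre-incubation. Compounds in 11-point 3-fold series from 1 μM; percent inhibition fitted to four-parameter equation for IC50.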

[1] = 5Fam-KLTRAETV-K5Tamra substrate 15 μM
[2] = 5Fam-[…]-K5Tamra substrate 15 μM

Row | SMILES | pIC50 (Factor XIa; [1]) | pIC50 (human plasma kallikrein) | IC50 (human plasma kallikrein) [µM] | pIC50 (Factor XIa; [2])
1 | Cn1cnc(-c2c[nH]c([C@@H]3CC[C@H]4CC(c5c(-n6cnnn6)ccc(Cl)c5F)=CC(=O)N43)n2)n1 [Example 274, (3S,8aS)-7-(3-Chloro-2-fluoro-6-(1H-tetrazol-1-yl)phenyl)-3-(4-(1-methyl-1H-1,2,4-triazol-3-yl)-1H-imidazol-2-yl)-2,3,8,8a-tetrahydroindolizin-5(1H)-one] | < 7.00 | – | > 1 | –
2 | O=C1C=C(c2c(-n3cnnn3)ccc(Cl)c2F)CC2CC[C@@H](c3nc(-c4ccnc(OC(F)F)c4)c(F)[nH]3)N12 (stereo in doubt) [Example 3, (S)-7-[3-Chloro-2-fluoro-6-(tetrazol-1-yl)phenyl]-3-[4-[2-(difluoromethoxy)-4-pyridyl]-5-fluoro-1H-imidazol-2-yl]-2,3,8,8a-tetrahydro-1H-indolizin-5-one] | – | 8.27 | – | 8.41
3 | CC(=O)Nc1cnc(C(F)(F)F)cc1-c1cnc([C@@H]2CC[C@H]3CC(c4c(-n5cnnn5)ccc(Cl)c4F)=CC(=O)N32)[nH]1 [Example 244, N-[4 [2-[(3S,8aS)-7-[3-Chloro-2-fluoro-6-(tetrazol-1-yl)phenyl]-5-oxo-2,3,8,8a-tetrahydro-1H-indolizin-3-yl]-1H-imidazol-5-yl]-6-(trifluoromethyl)-3-pyridyl]acetamide] | < 7.00 | 6.14 | – | –
4 | O=C1C=C(c2c(-n3cnnn3)ccc(Cl)c2F)CC2CC[C@@H](c3nc(-c4nc[nH]n4)c[nH]3)N12 (stereo partly drawn) [Example 331, (3S)-3-(4-(1H-1,2,4-Triazol-3-yl)-1H-imidazol-2-yl)-7-(3-chloro-2-fluoro-6-(1H-tetrazol-1-yl)phenyl)-2,3,8,8a-tetrahydroindolizin-5(1H)-one] | 6.46 | – | 2.4 | –
5 | O=C1CCCN1c1nccc(-c2cnc([C@@H]3CC[C@H]4CC(c5c(-n6cnnn6)ccc(Cl)c5F)=CC(=O)N43)[nH]2)c1F [Example 105, (3S,8aS)-7-(3-chloro-2-fluoro-6-(1H-tetrazol-1-yl)phenyl)-3-(5-(3-fluoro-2-(2-oxopyrrolidin-1-yl)pyridin-4-yl)-1H-imidazol-2-yl)-2,3,8,8a-tetrahydroindolizin-5(1H)-one] | 7.20 | 6.90 | – | –
6 | O=C1C=C(c2c(OC(F)F)ccc(Cl)c2F)C[C@H]2CC[C@@H](c3nc(F)c(-c4ccnc(CO)c4F)[nH]3)N12 [Example 23, (3S,8aR)-7-(3-Chloro-6-(difluoromethoxy)-2-fluorophenyl)-3-(4-fluoro-5-(3-fluoro-2-(hydroxymethyl)pyridin-4yl)-1H-imidazol-2-yl)-2,3,8,8a-tetrahydroindolizin-5(1H)-one] | 7.30 | 6.58 | – | –
7 | [2H]C([2H])(O)c1nccc(-c2nc([C@@H]3CC[C@@H]4CC(c5c(-n6cnnn6)ccc(Cl)c5F)=CC(=O)N43)[nH]c2Br)c1F [Example 184, (3S,8aR)-3-(5-bromo-4-(3-fluoro-2-(hydroxymethyl-d2)pyridin-4-yl)-1H-imidazol-2-yl)-7-(3-choro-2-fluoro-6-(1H-tetrazol-1-yl)phenyl)-2,3,8,8a-tetrahydroindolizin-5(1H)-one] | – | 6.68 | – | 8.14
8 | CC(=O)Nc1cnc(C(F)(F)F)cc1-c1cnc([C@@H]2CC[C@@H]3CC(c4c(-n5cnnn5)ccc(Cl)c4F)=CC(=O)N32)[nH]1 [Example 245, N-[4-[2-[(3S,8aR)-7-[3-Chloro-2-fluoro-6-(tetrazol-1-yl)phenyl]-5-oxo-2,3,8,8a-tetrahydro-1H-indolizin-3-yl]-1H-imidazol-5-yl]-6-(trifluoromethyl)-3-pyridyl]acetamide] | 7.11 | 6.25 | – | –
9 | O=C(O)c1nccc(-c2cnc([C@@H]3CC[C@@H]4CC(c5cc(Cl)ccc5-n5cc(C(F)(F)F)nn5)=CC(=O)N43)[nH]2)c1F (single isomer, unassigned) [Example 54, 4-(2-((3S*,8aR)-7-(5-chloro-2-(4-(trifluoromethyl)-1H-1,2,3-triazol-1-yl)phenyl)-5-oxo-1,2,3,5,8,8a-hexahydroindolizin-3-yl)-1H-imidazol-5-yl)-3-fluoropicolinic acid] | – | 7.17 | – | 9.10
10 | Cn1nncc1-c1c[nH]c([C@@H]2CCC3CC(c4c(-n5cnnn5)ccc(Cl)c4F)=CC(=O)N32)n1 (stereo partly drawn) [Example 339, (3S)-7-(3-Chloro-2-fluoro-6-(1H-tetrazol-1-yl)phenyl)-3-(4-(1-methyl-1H-1,2,3-triazol-5-yl)-1H-imidazol-2-yl)-2,3,8,8a-tetrahydroindolizin-5(1H)-one] | 6.87 | – | 2.05 | –

The remaining compounds from weak to strong by pIC50 (Factor XIa; [1]), led by results:

Row | pIC50 (Factor XIa; [1]) | pIC50 (human plasma kallikrein) | IC50 (human plasma kallikrein) [µM] | pIC50 (Factor XIa; [2]) | SMILES
11 | 7.97 | 7.73 | – | – | O=C(Nc1cnc(C(F)(F)F)cc1-c1cnc([C@@H]2CC[C@H]3CC(c4c(-n5cnnn5)ccc(Cl)c4F)=CC(=O)N32)[nH]1)C1CC1 [Example 242, N-[4 [2-[(3S,8aS)-7-[3-Chloro-2-fluoro-6-(tetrazol-1-yl)phenyl]-5-oxo-2,3,8,8a-tetrahydro-1H-indolizin-3-yl]-1H-imidazol-5-yl]-6-(trifluoromethyl)-3-pyridyl]cyclopropanecarboxamide]
12 | 8.19 | 7.15 | – | – | CS(=O)(=O)Nc1cc(-c2cnc(C3CCC4CC(c5c(-n6cnnn6)ccc(Cl)c5F)=CC(=O)N43)[nH]2)ccn1 (stereo not drawn) [Example 7, N-[4-[2-[7-[3-Chloro-2-fluoro-6-(tetrazol-1-yl)phenyl]-5-oxo-2,3,8,8a-tetrahydro-1H-indolizin-3-yl]-1H-imidazol-5-yl]-2-pyridyl]methanesulfonamide]
13 | 8.30 | 7.59 | – | – | COC(=O)Nc1ccc(-c2cnc([C@@H]3CC[C@@H]4CC(c5c(-n6cnnn6)ccc(Cl)c5F)=CC(=O)N43)[nH]2)nc1 [Example 316, Methyl (6-(2-((3S,8aR)-7-(3-chloro-2-fluoro-6-(1H-tetrazol-1-yl)phenyl)-5-oxo-1,2,3,5,8,8a-hexahydroindolizin-3-yl)-1H-imidazol-5-yl)pyridin-3-yl)carbamate]
14 | 8.38 | 7.51 | – | – | O=C1C=C(c2c(-n3cnnn3)ccc(Cl)c2F)C[C@H]2CC[C@H](c3ncc(-c4ccnc(C5(O)CC5)c4F)[nH]3)N12 (single isomer, unassigned) [Example 162, (3*R,8aR)-7-(3-chloro-2-fluoro-6-(1H-tetrazol-1-yl)phenyl)-3-(5-(3-fluoro-2-(1-hydroxycyclopropyl)pyridin-4-yl)-1H-imidazol-2-yl)-2,3,8,8a-tetrahydroindolizin-5(1H)-one]
15 | 8.64 | 7.47 | – | – | CCOC(=O)Nc1cnccc1-c1c[nH]c([C@@H]2CC[C@H]3CC(c4c(-n5cnnn5)ccc(Cl)c4F)=CC(=O)N32)n1 [Example 263, Ethyl N-[4-[2-[(3S,8aS)-7-[3-chloro-2-fluoro-6-(tetrazol-1-yl)phenyl]-5-oxo-2,3,8,8a-tetrahydro-1H-indolizin-3-yl]-1H-imidazol-4-yl]-3-pyridyl]carbamate]
16 | 8.77 | 8.55 | – | – | O=C1C=C(c2c(-n3cnnn3)ccc(Cl)c2F)CC2CCC(c3ncc(-c4ccnc(-c5ccn[nH]5)c4)[nH]3)N12 (stereo not drawn) [Example 53, 3-(5-(2-(1H-pyrazol-5-yl)pyridin-4-yl)-1H-imidazol-2-yl)-7-(3-chloro-2-fluoro-6-(1H-tetrazol-1-yl)phenyl)-2,3,8,8a-tetrahydroindolizin-5(1H)-one]
17 | 8.82 | 8.72 | – | – | O=C1C=C(c2c(-n3cnnn3)ccc(Cl)c2F)C[C@H]2CC[C@@H](c3nc(F)c(-c4ccnc(-n5cccn5)c4)[nH]3)N12 [Example 88, (3S,8aR)-7-[3-chloro-2-fluoro-6-(tetrazol-1-yl)phenyl]-3-[4 fluoro-5-(2-pyrazol-1-yl-4-pyridyl)-1H-imidazol-2-yl]-2,3,8,8a-tetrahydro-1H-indolizin-5-one]
18 | 9.10 | 8.19 | – | – | COC(=O)Nc1nccc(-c2[nH]c([C@@H]3CC[C@@H]4CC(c5c(-n6cnnn6)ccc(Cl)c5F)=CC(=O)N43)nc2F)c1F [Example 40, Methyl N-[4-[2-[(3S,8aR)-7-[3-chloro-2-fluoro-6-(tetrazol-1-yl)phenyl]-5-oxo-2,3,8,8a-tetrahydro-1H-indolizin-3-yl]-4-fluoro-1H-imidazol-5-yl]-3-fluoro-2-pyridyl]carbamate]
19 | 9.22 | 8.07 | – | – | [2H]c1cc(N)nc(F)c1-c1cnc([C@@H]2CC[C@@H]3CC(c4c(-n5cnnn5)ccc(Cl)c4F)=CC(=O)N32)[nH]1 [Example 150, (3S,8aR)-3-[5-(6-amino-4-deuterio-2-fluoro-3-pyridyl)-1H-imidazol-2-yl]-7-[3-chloro-2-fluoro-6-(tetrazol-1-yl)phenyl]-2,3,8,8a-tetrahydro-1H-indolizin-5-one]
20 | 9.22 | 8.07 | – | – | [2H]c1cc(N)nc(F)c1-c1[nH]c([C@@H]2CC[C@@H]3CC(c4c(-n5cnnn5)ccc(Cl)c4F)=CC(=O)N32)nc1[2H] [Example 148, (3S,8aR)-3-[5-(6-amino-4-deuterio-2-fluoro-3-pyridyl)-4-deuterio-1H-imidazol-2-yl]-7-[3-chloro-2-fluoro-6-(tetrazol-1-yl)phenyl]-2,3,8,8a-tetrahydro-1H-indolizin-5-one]
21 | 9.52 | 8.31 | – | – | Nc1ccc(-c2cnc([C@@H]3CC[C@H]4CC(c5c(-n6cnnn6)ccc(Cl)c5F)=CC(=O)N43)[nH]2)c(Cl)n1 [Example 352, (3S,8aS)-3-(5-(6-Amino-2-chloropyridin-3-yl)-1H-imidazol-2-yl)-7-(3-chloro-2-fluoro-6-(1H-tetrazol-1-yl)phenyl)-2,3,8,8a-tetrahydroindolizin-5(1H)-one]
